Entries after “also recorded” stand apart in the source; their conditions may differ.

The data set can be described thus: Solubility check: coated film of Cytop CTL-809M fluororesin solution observed by optical microscope for bleed-out or undissolved compound. The note with it: compound at 0.3 wt % with respect to Cytop CTL-809M in perfluorotributylamine/1,1,1,3,3,3-hexafluoropropan-2-ol/Cytop CTL-809M=91/5/4 (parts by weight); film 1.5 μm on glass, dried. In kind it is physicochemical. On the procedure:
To a mixed solution of perfluorotributylamine/1,1,1,3,3,3-hexafluoropropan-2-ol/Cytop CTL-809M (manufactured by Asahi Glass Co., Ltd.)=91/5/4 (parts by weight), was added the compound represented by formula (1) according to the invention (any of Compounds 1-1 to 1-8) or Comparative Compound C-1 or C-2 as shown below in an amount of 0.3 wt % with respect to the Cytop CTL-809M. Thereafter, the mixed solution was applied onto a glass substrate to a film thickness of 1.5 μm and dried.
Turning to `CC(C)(C)c1cc(CCC(=O)OCC(F)(F)C(F)(F)C(F)(F)C(F)(F)C(F)(F)C(F)(F)C(F)(F)C(F)(F)C(F)(F)F)cc(C(C)(C)C)c1O` [Compound 1-1], the Solubility result is listed as “Compatible”.

Consider `CC(C)(C)c1cc(CCC(=O)OCC(O)CC(F)(F)C(F)(F)C(F)(F)C(F)(F)C(F)(F)C(F)(F)C(F)(F)C(F)(F)F)cc(C(C)(C)C)c1O` (stereo not shown) [Compound 1-2], for which the Solubility result was “Compatible”.

In the case of `Cc1cc(CCC(=O)OCC(F)(F)C(F)(F)C(F)(F)C(F)(F)C(F)(F)C(F)(F)C(F)(F)C(F)(F)C(F)(F)F)cc(C(C)(C)C)c1O` [Compound 1-3], the Solubility entry is “Compatible”.

With `CC(C)(C)c1cc(CCC(=O)OCC(F)(F)C(F)(F)C(F)(F)C(F)(F)C(F)(F)C(F)(F)C(F)(F)C(F)(F)F)cc(C(C)(C)C)c1O` [Compound 1-4], the Solubility entry is on record as “Compatible”.

On to `CC(C)(C)c1cc(CCC(=O)OCCC(F)(F)C(F)(F)C(F)(F)C(F)(F)C(F)(F)C(F)(F)F)cc(C(C)(C)C)c1O` [Compound 1-5], for which the Solubility entry was “Compatible”.

As to `Cc1cc(CCC(=O)OCC(F)(F)C(F)(F)C(F)(F)C(F)(F)C(F)(F)C(F)(F)C(F)(F)C(F)(F)C(F)(F)F)cc(C)c1O` [Compound 1-6], the Solubility result was “Compatible”.

With `CC(C)(C)c1cc(CCC(=O)OC(CO)CC(F)(F)C(F)(F)C(F)(F)C(F)(F)C(F)(F)C(F)(F)F)cc(C(C)(C)C)c1O` (stereo not shown) [Compound 1-7], the Solubility result was “Compatible”.

Consider `Cc1cc(CCC(=O)OCC(F)(F)C(F)(F)C(F)(F)C(F)(F)C(F)(F)C(F)(F)C(F)(F)C(F)(F)C(F)(F)C(F)(F)F)cc(C)c1O` [Compound 1-8], for which the Solubility entry is reported as “Compatible”.

For the compound `CCCCCCCCCCOC(=O)CCc1cc(C(C)(C)C)c(O)c(C(C)(C)C)c1` [Compound C-1, reference compound], the Solubility result is listed as “remained partially undissolved; also recorded: Remain partially”.

Regarding `CC(C)(C)c1cc(CCC(=O)OCC(O)CC(F)(F)C(F)(F)C(F)(F)F)cc(C(C)(C)C)c1O` (stereo not shown) [Compound C-2, reference compound], the Solubility entry is “bled out on the resin surface; also recorded: Bleed out (a compound which bleeds out is denoted by “Bleed out,”)”.
